Source: patent US8772318B2, “Methods and compositions related to targeting monoacylglycerol lipase” (The Scripps Research Institute, priority 2008, dated 2014)

Key:
[1] = Locomotor activity (hypomotility); format: in vivo, mouse
Method: (§1) Behavioral Studies. […] A total of four groups of mice were used, with a sample size of 14 mice/group. Before injections, the mice were evaluated for baseline responses in the tail immersion test, as well for rectal temperatures. […] For determining hypomotility each mouse was placed in a clear Plexiglas box (42.7×21.0×20.4 cm) for a 10 min assessment period and Anymaze (Stoelting, Wood Dale, Ill.) software was used to determine the percentage of time spent immobile. Subjects were assessed for nociception in the tail immersion assay. Each mouse was placed head first into a small bag fabricated from absorbent under pads (VWR Scientific Products; 4 cm diameter, 11 cm length) with the tail out of the bag. The experimenter gently held the mouse and immersed approximately 1 cm of the tip of the tail into a water bath maintained at 56.0° C. The latency for the animal to withdraw its tail from the water within a 10 s cutoff time was scored. Catalepsy was evaluated using the bar test, in which the front paws of each subject were placed on a rod (0.75 cm diameter) that was elevated 4.5 cm above the surface. Mice that remained motionless with their paws on the bar for 10 s (with the exception of respiratory movements) were scored as cataleptic. […] Rectal temperature was determined by inserting a thermocouple probe 2.0 cm into the rectum and temperature was obtained from a telethermometer.

[2] = Bar test (catalepsy, hyperreflexia); format: in vivo, mouse; details: rimonabant 3 mg/kg before JZL184 16 mg/kg
Method: as §1

[3] = tested on: human cancer cell lines (C8161, SKOV3, 231MFP, MUM2C, OVCAR3); assay: Lipid measurements in cancer cells; format: cell-based; details: antagonist 1 μM, 4 hr
Method: Pharmacological inhibition of MAGL in cancer cells. Pharmacological inhibition studies were conducted as described previously (Chiang et al., Chem. Biol. 13:1041-1050, 2006). Cancer cells were maintained in RPMI medium 1640 with 10% (v/v) fetal calf serum at 37° C. in a humidified atmosphere of 5% CO2/95% air. At 80% confluency, cells were trypsinized and counted using a hemocytometer, and 1×10^6 cells were plated in 6 cm dishes (subconfluent). […] After incubation for 4 hr, the cells were harvested and analyzed by ABPP or LC-MS.
Lipid measurements in cancer cells. Lipid measurements were conducted similarly to protocols described previously (Chiang et al., 2006; supra). Cancer cells were grown in serum-free media for 4 hrs to minimize the contribution of serum-derived lipids to the cellular profiles. The cells (1×10^6 cells/6 cm dish, 80% confluency) were washed with twice with phosphate buffer saline (PBS), isolated by centrifugation at 1,400×g, and dounce-homogenized in 4 ml of a 2:1:1 mixture of chloroform:methanol:Tris buffer. Samples were homogenized in the presence of the following synthetic standards: C12:0 MAGE (10 nmol), C15:0 FFA (10 nmol). Organic and aqueous layers were separated by centrifugation at 2000×g for 5 min and the organic layer was collected. The aqueous layer was acidified (for metabolites such as LPA) by adding 5% formic acid, followed by the addition of 2 ml chloroform. The mixture was vortexed, and the organic layers were combined, dried down under N2 and dissolved in 100 μl chloroform, of which 30 μl was analyzed by LC-MS.
LC-MS analysis was performed by using an Agilent 1100 LC-MSD SL instrument. […] Mobile phase A was composed of a 95:5 ratio of water:methanol, and mobile phase B consisted of 2-propanol, methanol, and water in a 60:35:5 ratio. Solvent modifiers such as 0.1% formic acid and 0.1% ammonium hydroxide were used to assist ion formation as well as to improve the LC resolution in both positive and negative ionization modes, respectively. The flow rate for each run started at 0.1 ml/min for 5 min, to alleviate backpressure associated with injecting chloroform. The gradient started at 0% B and increased linearly to 100% B over the course of 45 min with a flow rate of 0.4 ml/min, followed by an isocratic gradient of 100% B for 17 min at 0.5 ml/min before equilibrating for 8 min at 0% B with a flow rate of 0.5 ml/min. MS analysis was performed with an electrospray ionization (ESI) source. The capillary voltage was set to 3.0 kV, and the fragmentor voltage was set to 100 V. The drying gas temperature was 350° C., the drying gas flow rate was 10 L/min, and the nebulizer pressure was 35 psi.
Lipidomic analysis was performed in both targeted and untargeted mode by LC-MS analysis. Standard lipid classes were quantitated by targeting using selected ion monitoring (SIM) (except for very high-abundance metabolites which were quantitated by untargeted analysis) and identities of metabolites were confirmed by coelution of metabolites with their respective standards and mass accuracy to within 10 ppm as determined with an accurate mass Agilent 6520 Accurate Mass QTOF-MS-MS. These lipids were quantified by measuring the area under the peak and were normalized to an internal standard (C12:0 MAGE in positive mode or C15:0 FFA in negative mode). […]

[4] = Tail immersion assay of thermal pain sensation; format: in vivo, mouse; details: rimonabant 3 mg/kg before JZL184 16 mg/kg
Method: as §1

[5] = Rectal temperature (hypothermia); format: in vivo, mouse; details: rimonabant 3 mg/kg before JZL184 16 mg/kg
Method: as §1

[6] = Acetic acid abdominal stretching (writhing) assay; format: in vivo, mouse; details: rimonabant 3 mg/kg before JZL184 16 mg/kg
Method: A second group of naïve subjects (n=10-11 mice/group) were evaluated in the acetic acid stretching assay. […] Acetic acid (0.6%) was injected intraperitoneally in a volume of 10 μl/g body weight 120 min after the second injection. The number of stretches (constriction of abdomen, turning of trunk (twist) and extension of the body and hind limbs) per mouse was counted during a 20-min period after the administration of acetic acid.

[7] = tested on: human cancer cell lines (C8161, SKOV3, 231MFP, MUM2C, OVCAR3); assay: Cell migration assay (Transwell); format: cell-based; details: antagonist 1 μM, 4 hr
Method: Cell migration, cell survival, and invasion studies. Migration assays were performed in Transwell chambers (Corning) with 8 μm pore-sized membranes coated with 10 μg/ml collagen for 4 h at 37° C. A total of 24 hr before the start of the migration assay, cancer cell lines were plated at a concentration of 1×10^6 cells per 6 cm dish. At the start of the migration assay, cells were harvested by washing two times with PBS and were then serum starved in serum-free media for 4 hr. Inhibitor, lipid or vehicle (0.1% DMSO) were preincubated with the cells during this 4 h time. Serum-starved cells were trypsinized, spun at 1400×g for 3 min, resuspended, and counted. 50,000 cells were seeded in the upper chamber of the transwells in 200 μl serum-free media (containing inhibitor, lipid or vehicle). Inhibitor, lipid or vehicle was also added to the lower chamber, and cells were allowed to migrate for 5 h (for C8161 and 231MFP cells) or 20 hr (SKOV3, MUM2C and OVCAR3 cells). The filters were then fixed and stained with Diff-Quik (Dade Behring). Cells that had not migrated through the chamber were removed with a cotton ball. The cells that migrated were counted at a magnification of 400×, and 4 fields were independently counted from each migration chamber. An average of cells in 4 fields for one migration chamber represents n=1.

FAAH = molecular target: T1, FAAH (Mus musculus, UniProt O08914); assay: FAAH activity of brain membranes from treated mice (competitive ABPP, oleamide substrate assay); format: in vivo; details: URB597 10 mg/kg, i.p.
T1 construct: from tissue; host or cells: mouse brain membrane fraction
T1 sequence (O08914 1-579): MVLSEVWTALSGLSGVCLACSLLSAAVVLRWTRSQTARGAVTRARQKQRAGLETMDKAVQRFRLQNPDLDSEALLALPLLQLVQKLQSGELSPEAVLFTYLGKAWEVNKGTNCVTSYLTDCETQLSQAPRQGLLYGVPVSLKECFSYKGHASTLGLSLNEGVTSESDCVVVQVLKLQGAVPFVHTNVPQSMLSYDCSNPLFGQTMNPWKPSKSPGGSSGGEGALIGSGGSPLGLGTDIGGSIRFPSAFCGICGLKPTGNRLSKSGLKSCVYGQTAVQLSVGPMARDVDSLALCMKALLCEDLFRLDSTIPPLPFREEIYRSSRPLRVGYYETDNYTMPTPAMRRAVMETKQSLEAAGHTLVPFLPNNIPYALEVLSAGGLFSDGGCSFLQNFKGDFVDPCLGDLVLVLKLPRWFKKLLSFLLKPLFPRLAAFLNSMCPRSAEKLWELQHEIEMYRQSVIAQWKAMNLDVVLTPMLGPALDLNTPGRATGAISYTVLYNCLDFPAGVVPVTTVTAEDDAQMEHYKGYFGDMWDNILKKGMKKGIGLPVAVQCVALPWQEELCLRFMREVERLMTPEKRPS
Method: Enzyme activity assays. Briefly, 2-AG (100 μM) was incubated with mouse brain membrane (20 μg) or recombinant MAGL in COS7 cells (0.1 μg) in PBS (200 μl) at room temperature for 10 min. The reactions were quenched by the addition of 500 μL 2:1 v/v CHCl3:MeOH, doped with 0.5 nmol PDA, vortexed, then centrifuged (1,400×g, 3 min) to separate the phases. 30 ul of the resultant organic phase was injected onto an Agilent 1100 series LC-MSD SL instrument. […] Mobile phase A was composed of 95:5 v/v H2O:MeOH, and mobile phase B was composed of 60:35:5 v/v/v i-PrOH:MeOH:H2O. 0.1% ammonium hydroxide was included to assist in ion formation in negative ionization mode. […] Hydrolysis products were quantified by measuring the area under the peak in comparison to the PDA standard. ^13C-oleamide or AEA hydrolysis activity was determined using mouse brain membrane (50 μg) or recombinant FAAH in COST cells (5 μg), respectively, in PBS (100 μl). […] DAGLβ hydrolysis activity was determined using recombinant DAGLβ in HEK293 cells (50 μg) in PBS (100 μl). […]
Competitive activity-based protein profiling (ABPP) experiments. […] After 30 min at room temperature, the reactions were quenched with 4×SDS-PAGE loading buffer, boiled for 5 min at 90° C., subjected to SDS-PAGE, and visualized in-gel using a flatbed fluorescence scanner. […]

[8] = tested on: brain levels of 2-AG, arachidonic acid, NAEs, MAGs, free fatty acids; assay: Measurement of brain lipids in treated mice; format: in vivo, mouse; details: URB597 10 mg/kg, i.p.
Method: Measurement of brain lipids. One half brain was weighed and subsequently Dounce homogenized in 2:1:1 v/v/v CHCl3:MeOH:Tris pH 8.0 (8 ml) containing standards for N-acylethanolamine (NAE), monoacylglycerol (MAG), or free fatty acid (FFA) measurements (200 pmol d4-OEA, 20 pmol d4-AEA, 400 pmol C15:0-MAG, and 4 nmol PDA). The mixture was vortexed and then centrifuged (1,400×g, 10 min). The organic layer was removed, CHCl3 was added until the final volume was again 8 ml, and the extraction was repeated. The combined organic extracts were dried under a stream of N2 and resolubilized in 2:1 v/v CHCl3:MeOH (120 μl). 30 uL and 15 uL of resolubilized lipid were injected for positive mode (MAG and NAE) and negative mode (free fatty acid) measurements, respectively. Lipid measurements were performed by LC-MS using the same instrument and solvents as described above. Solvent modifiers such as 0.1% formic acid or 0.1% ammonium hydroxide were included to assist in ion formation in positive and negative ionization mode, respectively. For positive mode measurements, the flow rate for each run started at 0.1 ml/min for 5 min. […] MAGs, NAEs, and FFAs were quantified by measuring the area under the peak in comparison to the C15:0 or deuterated standards. […]

Compound | movement, rimonabant on its own ([1]; rimonabant 3 mg/kg) | effect of rimonabant on JZL184-induced immobility ([1]; rimonabant 3 mg/kg before JZL184 16 mg/kg) | effect of rimonabant on JZL184 hyperreflexia effect [2] | FFA levels in shControl and shMAGL cancer cells [3] | effect of rimonabant pre-treatment on JZL184 analgesia, tail immersion [4] | effect of rimonabant on JZL184 hypothermic effect [5] | effect of rimonabant pre-treatment on JZL184 analgesia, acetic acid writhing [6] | migratory defect in shMAGL cancer cells [7] | brain FAAH activity (FAAH) | brain 2-AG or arachidonic acid levels [8] | brain anandamide and other NAEs [8]
Cc1c(C(=O)NN2CCCCC2)nn(-c2ccc(Cl)cc2Cl)c1-c1ccc(Cl)cc1 [rimonabant] | significant reductions in movement | partial blockade | completely blocked | unchanged | blocked | completely blocked | blocked | not rescued |  |  | 
NC(=O)c1cccc(-c2cccc(OC(=O)NC3CCCCC3)c2)c1 [URB597] |  |  |  |  |  |  |  |  | completely inhibited | without altering | significant elevations
